Measured values as given in BigSolDB 2.1.

Nc1cccc2c1C(=O)N(C1CCC(=O)NC1=O)C2=O (stereo unspecified)
solubility (mole fraction)
Conditions	278.15 K	283.15 K	288.15 K	293.15 K	298.15 K	303.15 K	308.15 K	313.15 K	318.15 K
in acetone	1.43e-06	2e-06	2.59e-06	3.32e-06	4.27e-06	5.32e-06	6.53e-06	7.84e-06	9.49e-06
in ethanol	1.8e-07	2.4e-07	3.1e-07	4.1e-07	5.3e-07	6.8e-07	8.5e-07	1.04e-06	1.26e-06
in ethyl acetate	4.5e-07	6.6e-07	9.3e-07	1.21e-06	1.55e-06	1.95e-06	2.38e-06	2.96e-06	3.62e-06
in isopropanol	2.3e-07	3.4e-07	4.8e-07	6.3e-07	8.1e-07	1.02e-06	1.26e-06	1.56e-06	1.9e-06
